According to ChEMBL document CHEMBL1158277, “N -(Indol-3-ylethyl)-2-hydroxy-3-methylpentanamide, a Novel Indole Derivative from Xenorhabdus nematophilus” (J Nat Prod, 1996):
Activity calls are given as the source filed them. The calls are words filed in the database; no cut-off is given here.

System: Bacillus subtilis
Experiment: Antibacterial activity against Bacillus subtilis at 100 ug/mL
Format: functional, organism-based

With `CC[C@H](C)[C@@H](O)C(=O)NCCc1c[nH]c2ccccc12` as the molecule, how does the Activity read?
The Activity was “inactive”.
